Laboratory results reported in patent US20210292315A1, “SELENIUM-CONTAINING ISOXAZOLAMINE COMPOUND, PREPARATION METHOD THEREFOR, AND USE THEREOF” (SHANGHAI XINGYE PHARMACEUTICAL TECHNOLOGY CO., LTD, priority 2018, published 2021).
pIC50: −log10 of the molar value. Read-outs that look alike come from different tables or passages of the source.

What was measured:
[1] = Glutathione peroxidase (GPx)-like activity assay, coupled NADPH oxidation at 340 nm; type: biochemical; conditions: compound 50 μm, GSH 2.0 mM, pH 7.5, 25° C.; for Initial rate v0, Cum-OOH: peroxide Cum-OOH 1.6 mM; for Initial rate v0, H2O2: peroxide H2O2 1.6 mM; for Initial rate v0, tBuOOH: peroxide tBuOOH 1.6 mM
Protocol: Method: GPX activity of selenium compounds was assayed by ultraviolet spectrophotometry. Glutathione (2.0 mM), EDTA (1 mM), glutathione disulfide reductase (1.7 units mL^−1), and nicotinamide adenine dinucleotide phosphate […] (NADPH; 0.4 mM) were mixed intopotassium phosphate buffer (0.1 M, pH=7.5). The selenium compounds (50 μm) was added to the above mixture At room temperature (25° C.), and the reaction was started by the addition of H2O2, tBuOOH or Cum-OOH (1.6 mM) respectively. The initial reduction rates were calculated from the rate of NADPH oxidation at 340 nm in a GSH assay. Each initial rate was measured at least three times and calculated from the first 5-10% of the reaction by using 6.22 mM^−1 cm^−1 as the molar extinction coefficient for NADPH. For the peroxidase activity, the rates were corrected for the background reaction between peroxide and thiol.

TNF-α = TNF-α activity inhibiting assay: LPS-stimulated peripheral blood, TNF-α by ELISA; type: cell-based, human; conditions: LPS 10 ng/mL, 6 hours, diluted peripheral blood from healthy volunteers, read-out: TNF-α inhibition (%)
Protocol: Methods: Peripheral blood from healthy volunteers was collected with EDTA anticoagulant tubes. After being diluted 5-fold with 1640 medium (Gibco, USA), the blood was added to 96-well cell culture plates (Costar, USA) and then treated with 10 μL solution of the compound of general formula (I) of the present invention in DMSO (Sigma, USA), and the final concentration of DMSO was 0.2%. After incubation for 60 minutes in an incubator at 37° C. under 5% CO2, 10 μL LPS (Sigma, USA) was added to the reaction system, and the final concentration was 10 ng/mL. After further culturing for 6 hours in the incubator at 37° C. under 5% CO2, the supernatant was collected. The content of TNF-α was determined by ELISA (BD Biosciences, USA). Absorbance was detected at OD450 nm with a microplate reader, with GD 650 nm as reference. The control, a solution containing 0.2% DMSO medium, was as 0% inhibition. Raw data and standard curves were recorded. The four-parameter drug inhibition curve was plotted by XL-fit software and the inhibition rate of each compound was calculated.

[2] = biological target: T1, Thioredoxin Reductase 1 (TrxR1) (Homo sapiens, UniProt Q16881); experiment: Thioredoxin reductase 1 (TrxR1) activity inhibiting assay, NADPH consumption at 340 nm; type: biochemical; conditions: insulin/Trx/NADPH system, absorbance 340 nm; read-out: TrxR inhibition IC50
T1 sequence (Q16881 151-649 limits assumed): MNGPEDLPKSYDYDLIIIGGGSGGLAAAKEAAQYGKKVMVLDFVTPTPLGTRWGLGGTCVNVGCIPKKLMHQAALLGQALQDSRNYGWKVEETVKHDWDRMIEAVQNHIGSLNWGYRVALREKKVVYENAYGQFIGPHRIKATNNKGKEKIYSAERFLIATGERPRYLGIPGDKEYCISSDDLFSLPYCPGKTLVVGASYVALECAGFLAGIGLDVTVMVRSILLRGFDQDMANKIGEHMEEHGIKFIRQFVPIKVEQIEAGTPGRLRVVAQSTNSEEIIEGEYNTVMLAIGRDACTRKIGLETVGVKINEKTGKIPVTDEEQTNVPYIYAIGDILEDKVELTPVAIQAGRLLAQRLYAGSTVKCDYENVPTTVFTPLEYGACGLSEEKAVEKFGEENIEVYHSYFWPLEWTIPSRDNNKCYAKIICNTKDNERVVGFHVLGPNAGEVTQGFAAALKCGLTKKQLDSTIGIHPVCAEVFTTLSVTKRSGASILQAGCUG
Protocol: Working solutions: 0.119 mg/mL of TrxR working solution preparation: 175 μL of TrxR stock solution (0.34 mg/mL) was diluted to 500 μL; 1 mM NADPH working solution preparation, NADPH (5 mg) was dissolved in 12 mL potassium phosphate buffer; 1 mM DTNB working solution preparation: 25 mg DTNB was dissolve in 63 mL DMSO; potassium phosphate buffer system preparation: 0.2 mg/mL bovine serum albumin (BSA) and 1 mM EDTA were added to potassium phosphate buffer at pH 7.4 (K2HPO4/KH2PO4).
Methods: The TrxR1 inhibitory activity study of selenium-containing isoxazolamines in vitro. Insulin, NADPH, Trx, the samples and TrxR1 were added to a microcuvette in order, and subsequently added the work buffer (0.1 mol/L potassium phosphate/2 mmol/L EDTA) to a total volume of 0.5 mL. The concentration of each component in the obtained reaction system is: insulin 130 μmol/L, NADPH […] (Sigma), Trx 4 μmol/L, the added substrate (the selenium-containing isoxazolamines treated samples). After determination of the initial absorption at 340 nm, the enzymatic reaction was started by adding 20 μg extracted TrxR1 proteins, the decrease in absorbance at 340 nm was monitored. One unit of enzymatic activity is defined as the consumption. The activity can be calculated from the extinction coefficient of NADPH, and the unit of enzyme activity is defined as: 1U=ΔA340 nm/min×1000, the TR activity could be calculated with U/L. The results are shown in table 2.

Compound	pIC50 (TNF-α; Homo sapiens)	pIC50 [2]	pIC50 (TNF-α)	other results
O=C1CCC(n2[se]c3ccccc3c2=O)C(=O)N1 (stereo not shown) [Compound 1]	4.00 to 5.00	4.30 to 5.30		Initial rate v0, Cum-OOH [1]: 124.5 ± 7.6 μm min^−1; Initial rate v0, H2O2 [1]: 109.7 ± 2.1 μm min^−1; Initial rate v0, tBuOOH [1]: 42.0 ± 3.3 μm min^−1
O=C1CCC(n2[se]c3cccc([N+](=O)[O-])c3c2=O)C(=O)N1 (stereo not shown) [Compound 2]	5.00 to 6.00	4.30 to 5.30		
Nc1cccc2[se]n(C3CCC(=O)NC3=O)c(=O)c12 (stereo not shown) [Compound 3]	> 6.00			
O=C1CCC(n2[se]c3ccc(F)cc3c2=O)C(=O)N1 (stereo not shown) [Compound 4]	4.00 to 5.00	> 5.30		
O=C1CCC(n2[se]c3c([N+](=O)[O-])cccc3c2=O)C(=O)N1 (stereo not shown) [Compound 5]	5.00 to 6.00	4.00 to 4.30		
Nc1cccc2c(=O)n(C3CCC(=O)NC3=O)[se]c12 (stereo not shown) [Compound 6]			> 6.00	
O=C1CCC(n2[se]c3cc(F)ccc3c2=O)C(=O)N1 (stereo not shown) [Compound 7]	4.00 to 5.00	> 5.30		Initial rate v0, Cum-OOH [1]: 142.2 ± 8.2 μm min^−1; Initial rate v0, H2O2 [1]: 128.2 ± 2.0 μm min^−1; Initial rate v0, tBuOOH [1]: 49.3 ± 5.0 μm min^−1
O=C1CCC(n2[se]c3cc(Cl)ccc3c2=O)C(=O)N1 (stereo not shown) [Compound 8]	4.00 to 5.00	4.30 to 5.30		
CC(=O)Nc1cccc2c(=O)n(C3CCC(=O)NC3=O)[se]c12 (stereo not shown) [Compound 9]	4.00 to 5.00	4.30 to 5.30		
O=C1CCC(n2[se]c3c(F)cccc3c2=O)C(=O)N1 (stereo not shown) [Compound 10]	5.00 to 6.00	> 5.30		
COc1cccc2c(=O)n(C3CCC(=O)NC3=O)[se]c12 (stereo not shown) [Compound 11]			5.00 to 6.00	
COc1ccc2[se]n(C3CCC(=O)NC3=O)c(=O)c2c1 (stereo not shown) [Compound 12]	5.00 to 6.00	> 5.30		Initial rate v0, Cum-OOH [1]: 116.8 ± 7.2 μm min^−1; Initial rate v0, H2O2 [1]: 121.7 ± 2.2 μm min^−1; Initial rate v0, tBuOOH [1]: 54.5 ± 5.7 μm min^−1
COc1cc2[se]n(C3CCC(=O)NC3=O)c(=O)c2cc1OC (stereo not shown) [Compound 13]	5.00 to 6.00	> 5.30		
COc1cc2c(=O)n(C3CCC(=O)NC3=O)[se]c2c(OC)c1OC (stereo not shown) [Compound 14]			> 6.00	
Cc1cccc2c(=O)n(C3CCC(=O)NC3=O)[se]c12 (stereo not shown) [Compound 15]			> 6.00	
N#Cc1cccc2c(=O)n(C3CCC(=O)NC3=O)[se]c12 (stereo not shown) [Compound 16]	5.00 to 6.00	4.30 to 5.30		
CC1(C)S[C@@H]2[C@H](n3[se]c4ccccc4c3=O)C(=O)N2[C@H]1C(=O)O [Compound 17]	< 4.00	> 5.30		
CC1(C)S[C@@H]2[C@H](n3[se]c4ccc(F)cc4c3=O)C(=O)N2[C@H]1C(=O)O [Compound 18]			< 4.00	
O=c1c2ccccc2[se]n1C12CC3CC(CC(O)(C3)C1)C2 [Compound 19]			4.00 to 5.00	Initial rate v0, Cum-OOH [1]: 34.2 ± 1.5 μm min^−1; Initial rate v0, H2O2 [1]: 99.7 ± 1.9 μm min^−1; Initial rate v0, tBuOOH [1]: 32.3 ± 3.5 μm min^−1
O=c1c2cc(F)ccc2[se]n1C12CC3CC(CC(O)(C3)C1)C2 [Compound 20]			4.00 to 5.00	
O=c1c2ccccc2[se]n1-c1nc2ccccc2s1 [Compound 21]	4.00 to 5.00	4.30 to 5.30		Initial rate v0, Cum-OOH [1]: 94.5 ± 4.2 μm min^−1; Initial rate v0, H2O2 [1]: 115.3 ± 2.6 μm min^−1; Initial rate v0, tBuOOH [1]: 35.7 ± 4.2 μm min^−1
O=c1c2ccccc2[se]n1-c1nc2ccc(OC(F)(F)F)cc2s1 [Compound 22]	5.00 to 6.00	> 5.30		

Compound	pIC50 (TNF-α; Homo sapiens)	pIC50 [2]	pIC50 (TNF-α)	other results
COc1ccc2nc(-n3[se]c4ccccc4c3=O)sc2c1 [Compound 23]		4.30 to 5.30	4.00 to 5.00	
O=C1CC(n2[se]c3ccccc3c2=O)C(=O)N1 (stereo not shown) [Compound 24]			4.00 to 5.00	
COc1ccc2[se]n(C3CC(=O)NC3=O)c(=O)c2c1 (stereo not shown) [Compound 25]	4.00 to 5.00	4.30 to 5.30		
O=C1CC(n2[se]c3cc(F)ccc3c2=O)C(=O)N1 (stereo not shown) [Compound 26]			4.00 to 5.00	Initial rate v0, Cum-OOH [1]: 164.5 ± 9.1 μm min^−1; Initial rate v0, H2O2 [1]: 145.2 ± 3.4 μm min^−1; Initial rate v0, tBuOOH [1]: 55.7 ± 5.2 μm min^−1
O=C1CC(n2[se]c3c(F)cccc3c2=O)C(=O)N1 (stereo not shown) [Compound 27]		4.30 to 5.30	5.00 to 6.00	
Cc1cccc2c(=O)n(C3CC(=O)NC3=O)[se]c12 (stereo not shown) [Compound 28]			> 6.00	
COc1cccc2c(=O)n(-c3nc4ccc(OC(F)(F)F)cc4s3)[se]c12 [Compound 30]	4.00 to 5.00	> 5.30		
O=C1c2ccccc2[Se](=O)N1C12CC3CC(CC(O)(C3)C1)C2 (stereo not shown) [Compound 32]	< 4.00			Initial rate v0, Cum-OOH [1]: 11.5 ± 0.2 μm min^−1; Initial rate v0, H2O2 [1]: 36.7 ± 0.8 μm min^−1; Initial rate v0, tBuOOH [1]: 12.0 ± 2.3 μm min^−1
O=C1c2ccccc2[Se](=O)N1c1nc2ccccc2s1 (stereo not shown) [Compound 33]	< 4.00			
O=C1c2ccccc2[Se](=O)N1c1nc2ccc(OC(F)(F)F)cc2s1 (stereo not shown) [Compound 34]	4.00 to 5.00	4.00 to 4.30		Initial rate v0, Cum-OOH [1]: 12.4 ± 0.3 μm min^−1; Initial rate v0, H2O2 [1]: 39.7 ± 1.4 μm min^−1; Initial rate v0, tBuOOH [1]: 14.2 ± 1.1 μm min^−1
Nc1cccc2c1[Se](=O)N(C1CCC(=O)NC1=O)C2=O (stereo not shown) [Compound 35]			> 6.00	
O=C1CCC(N2C(=O)c3cc(F)ccc3[Se]2=O)C(=O)N1 (stereo not shown) [Compound 36]			4.00 to 5.00	
CC(=O)Nc1cccc2c1[Se](=O)N(C1CCC(=O)NC1=O)C2=O (stereo not shown) [Compound 37]			4.00 to 5.00	
O=C1CCC(N2C(=O)c3ccc(F)cc3[Se]2=O)C(=O)N1 (stereo not shown) [Compound 39]			4.00 to 5.00	
COc1cccc2c1[Se](=O)N(C1CCC(=O)NC1=O)C2=O (stereo not shown) [Compound 40]	5.00 to 6.00	4.00 to 4.30		
O=C1CC(N2C(=O)c3ccccc3[Se]2=O)C(=O)N1 (stereo not shown) [Compound 41]			4.00 to 5.00	
COc1cccc2c1[Se]N(C1CCC(=O)NC1=O)C2 (stereo not shown) [Compound 44]	5.00 to 6.00			
COc1ccc2c(c1)CN(C1CCC(=O)NC1=O)[Se]2 (stereo not shown) [Compound 45]		4.30 to 5.30		
COc1cccc2c1[Se]N(C13CC4CC(CC(O)(C4)C1)C3)C2 [Compound 50]	4.00 to 5.00			
O=c1c2ccccc2[se]n1-c1ccccc1 [Ebselen, reference compound]		4.00 to 4.30		
Nc1cccc2c1CN(C1CCC(=O)NC1=O)C2=O (stereo not shown) [Lenadomide, reference compound]	> 6.00			
O=C1CCC(N2C(=O)c3ccccc3C2=O)C(=O)N1 (stereo not shown) [Thalidomide, reference compound]	< 4.00			
